Experimental data from patent US20250108038A1 (priority 2023, published 2025).
Values joined by “and” are separate entries in the source; they are usually repeats but may differ in a detail not shown here. Equal entries are not always repeated. Where two headings read alike, the source gives them in different places.

Assays:
in vitro = conditions: beagle, dog, plasma
Experimental: (§1) Pooled (N≥3) male SD rat, beagle dog and mixed gender human plasma with EDTA-K2 as anticoagulant were purchased from BioIVT (NY, USA) and stored in a −70° C. freezer before use.
(§2) Incubations were conducted in 96-well plate format. The time points defined for this study are 0, 5, 15, 30 and 60 minutes.
(§3) For positive controls, the rat plasma was spiked with enalapril, the dog plasma spiked with bisacodyl and the human plasma was spiked with propantheline. All spiked plasma sample plates were incubated in a water bath at 37° C. with shaking.
(§4) At end of each time point, samples were immediately quenched with three volume of cold quenching solution. All sample plates were mixed thoroughly by shaking for approximately 10 minutes and centrifuged at 3220×g for 15 minutes. Subsequently, 100 μL of supernatant was removed from each well, mixed with 100 μL water in a new 96-well plate and subjected to LC-MS/MS analysis.
(§5) Concentrations of test article, metabolite, and control compounds in the samples were analyzed by LC-MS/MS semi-quantitatively. […] The peak area ratios of analyte/internal standard were used to semi-quantitatively determine the concentrations.
(§6) The peak area ratios (PAR) of analyte/internal standard were used to semi-quantitatively determine the concentration of test article and control compounds, and calculate the percent remaining with the following equation:
(§7) The elimination rate (ke) was calculated from a log linear plot of % remaining versus time. The half-life was calculated using the following equation:

[1] = Stability in beagle dog plasma; conditions: 2.0 μM
Experimental: as §1, §2, §3, §4, §5, §6, §7

CYP1A2 = target: T1, CYP1A2 (Homo sapiens, UniProt P05177); test: in vitro; conditions: both, microsomes, pH 7.4
T1 sequence (P05177 1-516): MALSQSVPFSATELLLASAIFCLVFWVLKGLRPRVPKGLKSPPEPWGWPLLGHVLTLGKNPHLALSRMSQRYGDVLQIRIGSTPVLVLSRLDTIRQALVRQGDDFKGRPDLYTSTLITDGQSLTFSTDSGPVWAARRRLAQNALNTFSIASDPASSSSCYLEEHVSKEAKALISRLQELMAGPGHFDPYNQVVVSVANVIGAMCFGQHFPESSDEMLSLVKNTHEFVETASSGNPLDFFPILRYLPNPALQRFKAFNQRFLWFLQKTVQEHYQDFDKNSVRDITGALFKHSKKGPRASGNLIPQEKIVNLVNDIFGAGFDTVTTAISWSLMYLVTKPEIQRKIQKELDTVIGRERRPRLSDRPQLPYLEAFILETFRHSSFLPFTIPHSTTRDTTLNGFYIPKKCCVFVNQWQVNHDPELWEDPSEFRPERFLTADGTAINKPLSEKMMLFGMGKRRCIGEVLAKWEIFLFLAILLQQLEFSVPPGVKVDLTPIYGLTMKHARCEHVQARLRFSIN

CYP2C9 = CYP2C9 (Homo sapiens, UniProt P11712); test: in vitro; conditions: both, pH 7.4
MATE1 [2] = target: T2, MATE1 (Homo sapiens, UniProt Q96FL8)
T2 sequence (Q96FL8 1-570): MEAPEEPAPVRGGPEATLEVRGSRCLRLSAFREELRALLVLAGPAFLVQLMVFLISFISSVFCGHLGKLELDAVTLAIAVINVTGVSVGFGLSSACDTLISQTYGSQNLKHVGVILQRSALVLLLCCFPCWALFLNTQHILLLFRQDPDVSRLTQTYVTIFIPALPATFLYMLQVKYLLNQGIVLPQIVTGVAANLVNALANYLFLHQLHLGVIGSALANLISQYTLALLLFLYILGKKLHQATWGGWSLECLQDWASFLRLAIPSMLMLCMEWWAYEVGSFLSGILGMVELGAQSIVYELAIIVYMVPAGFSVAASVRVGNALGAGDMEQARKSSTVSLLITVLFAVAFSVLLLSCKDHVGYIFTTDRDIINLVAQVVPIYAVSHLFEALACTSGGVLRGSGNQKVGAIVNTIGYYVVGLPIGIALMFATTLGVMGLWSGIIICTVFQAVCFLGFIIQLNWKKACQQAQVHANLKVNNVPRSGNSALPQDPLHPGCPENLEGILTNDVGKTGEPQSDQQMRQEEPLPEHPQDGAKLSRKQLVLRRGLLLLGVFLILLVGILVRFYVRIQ
Experimental: (§8) Uptake experiments were performed using HEK293 cells stably expressing the respective uptake transporters.
(§9) Cells were cultured at 37° C. in a humidified atmosphere containing 5% CO2 and were plated onto standard 96-well tissue culture plates.
(§10) Before the experiment, the medium was removed, and the cells were washed twice with 100 μL of pre-warmed (37° C.) assay buffer listed in Table 15. The cells were pre-incubated at 37° C. for 30 minutes in assay buffer containing the test article at appropriate concentrations (Table 16), appropriate solvents for solvent controls and the reference inhibitor for reference inhibitor wells. After the pre-incubation step solutions were removed. Uptake experiments were performed at 37° C. in 50 μL of assay buffer containing the probe substrate and the test article or solvent and controls.
(§11) After the experiment, cells were washed twice with 100 μL of appropriate cold buffer and lysed with 150 μL scintillation cocktail. Radiolabeled probe substrate transport was determined by liquid scintillation counting.
(§12) Uptake of the probe substrate in control cells provided background activity values for all data points.

MATE2-K [3] = target: T3, MATE2-K (Homo sapiens, UniProt Q86VL8)
Experimental: as §8, §9, §10, §11, §12

MATE1 [4] = target: T2, MATE1; test: in vitro
Experimental: as §8, §9, §10, §11, §12

MATE2-K [5] = target: T3, MATE2-K; test: in vitro
Experimental: as §8, §9, §10, §11, §12

CYP2C8 = target: T4, CYP2C8 (Homo sapiens, UniProt P10632); test: in vitro; conditions: both, pH 7.4
T4 sequence (P10632 1-490): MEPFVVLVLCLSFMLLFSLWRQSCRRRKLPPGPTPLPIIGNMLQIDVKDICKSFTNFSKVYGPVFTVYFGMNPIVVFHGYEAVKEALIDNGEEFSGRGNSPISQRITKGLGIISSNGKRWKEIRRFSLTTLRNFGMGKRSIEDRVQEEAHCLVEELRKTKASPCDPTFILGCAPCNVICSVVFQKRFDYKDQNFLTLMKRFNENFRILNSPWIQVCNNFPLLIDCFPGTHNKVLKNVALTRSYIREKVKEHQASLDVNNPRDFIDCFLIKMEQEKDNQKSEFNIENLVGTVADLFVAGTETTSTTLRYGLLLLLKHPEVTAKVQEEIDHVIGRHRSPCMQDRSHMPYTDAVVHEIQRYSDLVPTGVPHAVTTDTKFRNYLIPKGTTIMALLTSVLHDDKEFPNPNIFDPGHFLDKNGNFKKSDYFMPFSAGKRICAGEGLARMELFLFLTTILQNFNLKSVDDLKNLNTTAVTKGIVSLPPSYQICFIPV

CYP2C19 [6] = target: T5, CYP2C19 (Homo sapiens, UniProt P33261); test: in vitro; conditions: both, pH 7.4
CYP2C19 [7] = target: T5, CYP2C19; test: biochemical
CYP2D6 = CYP2D6 (Homo sapiens, UniProt P10635); test: in vitro; conditions: both, pH 7.4
Sequence of CYP2D6 (P10635 whole entry): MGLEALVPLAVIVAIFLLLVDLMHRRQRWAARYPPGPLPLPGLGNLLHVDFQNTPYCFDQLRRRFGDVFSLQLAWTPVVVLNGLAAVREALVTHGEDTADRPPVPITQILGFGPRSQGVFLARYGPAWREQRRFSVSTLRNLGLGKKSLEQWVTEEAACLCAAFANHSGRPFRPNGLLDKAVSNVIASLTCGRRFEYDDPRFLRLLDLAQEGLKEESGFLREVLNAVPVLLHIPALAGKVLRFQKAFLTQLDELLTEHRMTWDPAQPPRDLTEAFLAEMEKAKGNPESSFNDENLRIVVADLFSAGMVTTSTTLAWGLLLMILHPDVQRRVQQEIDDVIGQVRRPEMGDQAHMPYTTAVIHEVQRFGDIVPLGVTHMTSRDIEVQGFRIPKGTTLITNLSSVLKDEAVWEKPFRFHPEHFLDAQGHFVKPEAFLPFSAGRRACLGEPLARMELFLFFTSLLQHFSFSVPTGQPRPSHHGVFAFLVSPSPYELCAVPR

T3 sequence (Q86VL8 1-566 isoform Q86VL8-3): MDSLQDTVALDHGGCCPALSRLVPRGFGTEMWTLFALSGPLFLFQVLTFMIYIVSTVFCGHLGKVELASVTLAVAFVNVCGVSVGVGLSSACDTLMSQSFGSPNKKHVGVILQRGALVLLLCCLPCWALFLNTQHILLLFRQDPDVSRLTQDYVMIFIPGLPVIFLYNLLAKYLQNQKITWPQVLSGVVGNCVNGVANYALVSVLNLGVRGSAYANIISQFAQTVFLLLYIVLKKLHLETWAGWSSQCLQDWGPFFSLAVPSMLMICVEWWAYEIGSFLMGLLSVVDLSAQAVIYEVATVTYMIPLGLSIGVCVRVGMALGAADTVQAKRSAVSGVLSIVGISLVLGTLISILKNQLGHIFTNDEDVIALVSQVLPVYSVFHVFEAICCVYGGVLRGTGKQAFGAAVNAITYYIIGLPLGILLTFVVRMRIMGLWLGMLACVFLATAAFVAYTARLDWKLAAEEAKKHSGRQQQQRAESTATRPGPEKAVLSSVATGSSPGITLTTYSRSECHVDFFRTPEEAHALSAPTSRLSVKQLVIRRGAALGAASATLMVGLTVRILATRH
T5 sequence (P33261 whole entry): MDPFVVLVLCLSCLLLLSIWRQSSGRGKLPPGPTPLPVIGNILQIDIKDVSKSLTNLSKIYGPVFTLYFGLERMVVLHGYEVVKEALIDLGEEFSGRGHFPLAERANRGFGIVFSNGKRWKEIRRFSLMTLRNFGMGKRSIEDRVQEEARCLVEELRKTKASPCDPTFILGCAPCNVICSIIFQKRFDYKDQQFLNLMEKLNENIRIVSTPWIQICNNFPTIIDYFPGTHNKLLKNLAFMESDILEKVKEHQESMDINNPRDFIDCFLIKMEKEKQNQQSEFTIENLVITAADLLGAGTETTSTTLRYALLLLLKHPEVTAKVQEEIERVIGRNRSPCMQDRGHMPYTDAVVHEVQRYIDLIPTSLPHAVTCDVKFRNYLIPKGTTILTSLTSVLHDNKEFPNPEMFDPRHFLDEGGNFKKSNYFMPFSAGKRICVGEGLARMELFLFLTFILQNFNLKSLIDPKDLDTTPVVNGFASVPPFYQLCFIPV
Sequence of CYP2C9 (P11712 whole entry): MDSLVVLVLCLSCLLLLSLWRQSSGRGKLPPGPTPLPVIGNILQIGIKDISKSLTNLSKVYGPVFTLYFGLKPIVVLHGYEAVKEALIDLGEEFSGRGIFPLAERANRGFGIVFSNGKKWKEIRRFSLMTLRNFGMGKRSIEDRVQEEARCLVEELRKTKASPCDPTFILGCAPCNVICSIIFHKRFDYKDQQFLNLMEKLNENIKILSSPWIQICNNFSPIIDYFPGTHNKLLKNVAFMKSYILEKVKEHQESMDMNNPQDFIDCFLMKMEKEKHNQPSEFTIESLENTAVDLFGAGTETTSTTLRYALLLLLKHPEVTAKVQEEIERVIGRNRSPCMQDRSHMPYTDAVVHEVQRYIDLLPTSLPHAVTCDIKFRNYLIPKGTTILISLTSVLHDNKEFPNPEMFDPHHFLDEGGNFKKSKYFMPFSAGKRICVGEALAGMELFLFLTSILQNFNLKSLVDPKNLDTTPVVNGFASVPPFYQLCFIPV

## CC(=O)Oc1ccc(C(c2ccc(OC(C)=O)cc2)c2ccccn2)cc1 [Bisacodyl, reference compound]
In vitro
  half-life at 2 μM: 3.6 min
[1]; 0 min
  % Remaining: 100%
  Aa/Ai Mean (N = 2): 1.49
[1]; 5 min
  % Remaining: 45.9%
  Aa/Ai Mean (N = 2): 0.68
[1]; 15 min
  % Remaining: 8.79%
  Aa/Ai Mean (N = 2): 0.13
[1]; 30 min
  % Remaining: 0.34%
  Aa/Ai Mean (N = 2): 0.01
[1]; 60 min
  % Remaining: 0.00%
  Aa/Ai Mean (N = 2): 0.00

## COCCCC/C(=N\OCCN)c1ccc(C(F)(F)F)cc1 [Fluvoxamine]
CYP1A2
  inhibition at 50 µM: 101%

## Nc1ccc(S(=O)(=O)Nc2ccnn2-c2ccccc2)cc1 [Sulfaphenazole]
CYP2C9
  inhibition at 50 µM: 98.7%

## CCc1nc(N)nc(N)c1-c1ccc(Cl)cc1 [Pyrimethamine]
MATE1 [2]
  inhibition: 100%
MATE1 [2]; 5 µM
  inhibition: 100%
MATE2-K [3]
  inhibition: 101%
MATE2-K [3]; 5 µM
  inhibition: 101% and 102% and 100%
MATE1 [4]
  inhibition at 5 µM: 102%
  inhibition at 5 μM: 101%
MATE2-K [5]
  inhibition at 5 µM: 95%
  inhibition at 5 μM: 98%

## O=c1c(O)c(-c2ccc(O)c(O)c2)oc2cc(O)cc(O)c12 [Quercetin]
CYP2C8
  inhibition at 50 µM: 102%

## COc1ccc2[nH]c([S+]([O-])Cc3ncc(C)c(OC)c3C)nc2c1 (stereo not shown) [Omeprazole]
CYP2C19 [6]
  inhibition at 50 µM: 89.9%
CYP2C19 [7]
  IC50: 7.36 µM

## C=C[C@H]1C[N@@]2CC[C@H]1C[C@@H]2[C@@H](O)c1ccnc2ccc(OC)cc12 [Quinidine]
CYP2D6
  inhibition at 5 µM: 96.2%
